Source: patent publication US20080021217A1, “HETEROCYCLIC INHIBITORS OF RHO KINASE” (priority 2006, published 2008)
Where a name gives a salt, the structure may show the parent alone.

Experiments:
[1] = system: lasered (hypertensive) eyes of conscious cynomolgus monkeys; assay: Acute IOP response in lasered (hypertensive) eyes of conscious cynomolgus monkeys; type: in vivo; conditions: instilled in right eyes, IOP at 1, 3 and 6 hours; for Peak % Reduction in IOP vs. Control at 1.0%: compound at 1.0%; for Peak % Reduction in IOP vs. Control at 0.3%: compound at 0.3%
Source text: Acute IOP Response in Lasered (Hypertensive) Eyes of Conscious Cynomolgus Monkeys
Intraocular pressure (IOP) can be determined with an Alcon Pneumatonometer after light corneal anesthesia with 0.1% proparacaine. Eyes are washed with saline after each measurement. After a baseline IOP measurement, test compound is instilled in one […] aliquot to the right eyes only of nine cynomolgus monkeys. Vehicle is instilled in the right eyes of six additional animals. Subsequent IOP measurements are taken at 1, 3, and 6 hours, and peak reduction in IOP is reported below in Table 2 as percent of IOP lowering versus the control for each of the given concentrations of compound.
A more detailed description of the assay used herein may be found in May et al., “Evaluation of the Ocular Hypotensive Response of Serotonin 5-HT1A and 5-HT2 Receptor Ligands in Conscious Ocular Hypertensive Cynomolgus Monkeys,” J. of Pharmacology and Experimental Therapeutics, vol. 306(1), pp. 301-309 (2003), the disclosure of which is hereby incorporated by reference as if written herein in its entirety.

[2] = target: T1, recombinant N-terminal GST-tagged human Rho kinase 1 (ROCK1, amino acids 1-535) (Homo sapiens, UniProt Q13464); assay: In vitro Rho kinase assay (luciferase-based ATP consumption), ROCK1; type: biochemical
T1 construct: ROCK1, amino acids 1-535, Invitrogen Inc., cat. #PV-3691; GST (N); purchased Invitrogen Inc. PV-3691
Method: (§1) Rho kinase biochemical assays described below depend on firefly luciferase-based, indirect measurement of total ATP consumption by the kinase following incubation with substrate and ATP. 25 μl of Rho kinase assay buffer (20 mM Tris-HCL [pH 7.5], 1 mM MgCl2, 0.4 mM CaCl2, 0.15 mM EGTA, 0.1 mg/ml bovine serum albumin) containing 0.82 μg/ml of recombinant N-terminal GST-tagged human Rho kinase 1 (ROCK1, amino acids 1-535, Invitrogen Inc., cat. #PV-3691) or recombinant N-terminal GST-tagged human Rho kinase 2 (ROCK2, amino acids 1-552, Invitrogen Inc., cat #PV3759), 100 μg/ml S6 peptide substrate (related to amino acids 218-249 of the human 40S ribosomal protein S6, and suitable for ROCK1 or ROCK2, e.g. Upstate/Millipore Inc., cat #12-420), and 3 µM ATP are dispensed to wells of a 384 multi-well opaque plate. The plate is centrifuged for 30 seconds at approximately 200×g. 240 nl of test compound in DMSO is dispensed to each well by passive pin transfer. The lag phase of this in vitro kinase reaction permits addition of compounds soon after the reaction initiates. The reaction is allowed to incubate at 30° C. for 2 hours. The assay plates are sealed and maintained in a humidified environment. After 2 hours, 25 μl of easyLite protein kinase assay reagent (Perkin-Elmer, Inc.) is dispensed. After an additional 10 minute incubation at room temperature (about 22° C.), luminescence activity is measured on a Molecular Devices Analyst multi-mode plate reader or other suitable plate reader. Kinase inhibition results in less ATP consumption, and therefore increased luminescence signal. Negative control activity is measured with DMSO lacking any test compound. The positive control is 2-methyl-1-(4-methylisoquinolin-5-ylsulfonyl)perhydro-1,4-diazepine hydrochloride (aka H-1152P, HCl salt). Efficacy is measured as a percentage of positive control activity. […] In some cases, kinase reactions and compound testing are performed in 1536 multi-well plates under similar conditions, with assay volumes appropriately scaled. The designated NT means the cited example was not tested.

[3] = target: T2, recombinant N-terminal GST-tagged human Rho kinase 2 (ROCK2, amino acids 1-552) (Homo sapiens, UniProt O75116); assay: In vitro Rho kinase assay (luciferase-based ATP consumption), ROCK2; type: biochemical
T2 construct: ROCK2, amino acids 1-552, Invitrogen Inc., cat #PV3759; GST (N); purchased Invitrogen Inc. PV3759
Method: as §1

T2 sequence (O75116 1-552): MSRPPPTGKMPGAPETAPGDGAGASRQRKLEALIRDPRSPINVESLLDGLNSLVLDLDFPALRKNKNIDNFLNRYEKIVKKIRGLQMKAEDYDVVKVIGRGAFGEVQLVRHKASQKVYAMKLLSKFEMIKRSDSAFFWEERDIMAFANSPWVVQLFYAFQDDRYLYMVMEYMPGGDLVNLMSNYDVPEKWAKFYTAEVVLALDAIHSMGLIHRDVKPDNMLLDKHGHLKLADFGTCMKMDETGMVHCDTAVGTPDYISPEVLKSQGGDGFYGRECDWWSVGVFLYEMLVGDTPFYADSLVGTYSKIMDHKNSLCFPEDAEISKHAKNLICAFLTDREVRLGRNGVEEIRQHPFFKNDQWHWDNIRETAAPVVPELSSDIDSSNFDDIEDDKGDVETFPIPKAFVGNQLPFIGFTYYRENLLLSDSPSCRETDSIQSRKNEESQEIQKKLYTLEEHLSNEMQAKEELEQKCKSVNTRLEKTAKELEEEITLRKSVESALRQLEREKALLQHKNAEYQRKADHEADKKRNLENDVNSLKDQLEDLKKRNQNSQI
T1 sequence (Q13464 1-535): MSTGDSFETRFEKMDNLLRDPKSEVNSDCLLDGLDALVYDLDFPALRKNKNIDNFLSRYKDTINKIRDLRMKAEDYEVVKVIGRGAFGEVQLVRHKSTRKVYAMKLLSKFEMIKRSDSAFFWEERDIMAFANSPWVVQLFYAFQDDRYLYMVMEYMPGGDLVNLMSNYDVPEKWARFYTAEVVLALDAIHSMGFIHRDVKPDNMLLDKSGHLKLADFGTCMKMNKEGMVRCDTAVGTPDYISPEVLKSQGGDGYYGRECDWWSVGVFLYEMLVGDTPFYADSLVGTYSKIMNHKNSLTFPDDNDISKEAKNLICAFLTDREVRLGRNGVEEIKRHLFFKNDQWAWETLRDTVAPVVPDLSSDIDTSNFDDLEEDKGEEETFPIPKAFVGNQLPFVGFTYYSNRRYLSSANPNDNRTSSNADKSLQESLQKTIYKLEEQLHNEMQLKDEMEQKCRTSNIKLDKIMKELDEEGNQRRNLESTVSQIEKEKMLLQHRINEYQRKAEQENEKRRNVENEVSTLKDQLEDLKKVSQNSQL

SMILES	IC50 [2]	IC50 [3]	Peak % Reduction in IOP vs. Control at 1.0% [1]	Peak % Reduction in IOP vs. Control at 0.3% [1]
O=C(NCc1nc(-c2ccncc2)n[nH]1)c1ccc(O)cc1O [Ex. 15 HCl, 2,4-dihydroxy-N-((3-(pyridin-4-yl)-1H-1,2,4-triazol-5-yl)methyl)benzamide]	–	–	8.8%	–
Cc1cccc(C(=O)NCc2nc(-c3ccncc3)c[nH]2)c1O [Example 7, 2-hydroxy-3-methyl-N-((4-(pyridin-4-yl)-1H-imidazol-2-yl)methyl)benzamide]	< 5 µM	< 5 µM	–	11.0%
CC(=O)Oc1ccc(C(=O)NCc2nc(-c3ccncc3)n[nH]2)c(O)c1 [Example 36, 3-Hydroxy-4-((3-(pyridin-4-yl)-1H-1,2,4-triazol-5-yl)methylcarbamoyl)phenyl acetate]	< 5 µM	< 5 µM	–	8.4%
O=C(NCc1c[nH]c(-c2ccncc2)n1)c1cccs1 [Example 14]	> 5 µM	> 5 µM	–	–
COC(=O)c1ccc(C(=O)NCc2nc(-c3ccncc3)n[nH]2)cc1 [Example 30, Methyl 4-((3-(pyridin-4-yl)-1H-1,2,4-triazol-5-yl)methylcarbamoyl)benzoate]	< 5 µM	< 5 µM	–	–
O=C(NCc1nc(-c2ccncc2)n[nH]1)c1cccc2c1OCC2 [Example 43, N-((3-(pyridin-4-yl)-1H-1,2,4-triazol-5-yl)methyl)-2,3-dihydrobenzofuran-7-carboxamide]	< 5 µM	> 5 µM	–	–

Now from value to compound, other results behind:

IC50 [2]	IC50 [3]	SMILES	Peak % Reduction in IOP vs. Control at 1.0% [1]	Peak % Reduction in IOP vs. Control at 0.3% [1]
< 5 µM	< 5 µM	O=C(NCc1nc(-c2ccncc2)n[nH]1)c1ccc(O)cc1O [Example 15, 2,4-dihydroxy-N-((3-(pyridin-4-yl)-1H-1,2,4-triazol-5-yl)methyl)benzamide]	9.8%	14.9%
< 5 µM	< 5 µM	O=C(NCc1nc(-c2ccncc2)c[nH]1)c1ccc(O)cc1O [Example 6, 2,4-dihydroxy-N-((4-(pyridin-4-yl)-1H-imidazol-2-yl)methyl)benzamide]	–	5.8%
< 5 µM	< 5 µM	CC(C)C(=O)Oc1ccc(C(=O)NCc2nc(-c3ccncc3)n[nH]2)c(O)c1 [Example 35, 3-Hydroxy-4-((3-(pyridin-4-yl)-1H-1,2,4-triazol-5-yl)methylcarbamoyl)phenyl isobutyrate]	–	8.6%
< 5 µM	< 5 µM	Cc1cccc(C(=O)NCc2nc(-c3ccncc3)n[nH]2)c1O [Example 22, 2-hydroxy-3-methyl-N-((3-(pyridin-4-yl)-1H-1,2,4-triazol-5-yl)methyl)benzamide]	–	11.1%
< 5 µM	< 5 µM	Cc1ccsc1C(=O)NCc1nc(-c2ccncc2)n[nH]1 [Example 47, 3-Methyl-N-((3-(pyridin-4-yl)-1H-1,2,4-triazol-5-yl)methyl)thiophene-2-carboxamide]	–	–
< 5 µM	< 5 µM	CC(NC(=O)c1ccc(O)cc1O)c1nc(-c2ccncc2)n[nH]1 (stereo not shown) [Example 66, 2,4-Dihydroxy-N-(1-(3-(pyridin-4-yl)-1H-1,2,4-triazol-5-yl)ethyl)benzamide]	–	–
< 5 µM	< 5 µM	O=C(CCc1nc(-c2ccncc2)n[nH]1)c1ccc(O)cc1 [Example 63, 1-(4-hydroxyphenyl)-3-(3-(pyridin-4-yl)-1H-1,2,4-triazol-5-yl)propan-1-one]	–	–
< 5 µM	< 5 µM	CC(NC(=O)c1cccs1)c1nc(-c2ccncc2)n[nH]1 (stereo not shown) [Example 65, N-(1-(3-(Pyridin-4-yl)-1H-1,2,4-triazol-5-yl)ethyl)thiophene-2-carboxamide]	–	–
